Data set [1] has as its system H4K12 acetylation in HEK293 cells. The data set can be described thus: H4K12 acetylation western blot, constant exposure and washout. In kind it is cell-based, human. On the procedure: Frozen mouse brains (n = 6/treatment group) were rapidly dissected at 4°C to isolate frontal cortex (including PFC), ventral striatum (including NAc), and HIP for protein extraction. […] Solutions for protein extraction were supplemented with 5 mM sodium butyrate to suppress residual HDAC activity. […] Densitometric quantification was performed using Image J software (NIH) and statistical comparison to vehicle-treated controls by two-tailed t-test.
Protein was extracted by douncing in suspension buffer: 0.1 M NaCl, 0.01 M TrisCl (ph7.6), 0.001 M EDTA (pH 8.0), then immediately diluted with an equal volume of 2x SDS-gel loading buffer: 100 mM TrisCl (ph 6.8), 4% SDS, 20% glycerol, 200 mM DTT. […] Media was aspirated and cells collected for Western blotting using 40 μL buffers as detailed above for mouse brain. Solutions for protein extraction were supplemented with 5 mM sodium butyrate to suppress residual HDAC activity. Samples were denatured at 95°C for 5 min, passaged 3x through a 25 gauge needle and centrifuged at 10,000g for 10 min at room temperature and protein quantification performed using a BCA protein assay kit #23225 (Pierce). […] Chemiluminescent detection of immunoreactivity was performed using SuperSignal West Dura Substrate #34076 (Pierce) with subsequent densitometric quantification using Image J software (NIH) and statistical comparison to vehicle-treated controls by two-tailed t-test.
For orientation: In western blotting, separated proteins are transferred to a membrane and probed.

A short description of data set [2]: Positron emission tomography of carbon-11 labeled Cpd-60. It counts as in vivo, baboon (Papio anubis). The note with it: intravenous, preliminary unpublished data. From the text:
Male 11 wk old C57BL/6 mice were utilized for pharmacokinetic, behavioral and biochemical analyses. One female baboon (Papio Anubis) was used to determine brain uptake and pharmacokinetics of Cpd-60. […] Non-human primate housing conditions and feeding regimens were coordinated by the professional investigative staff at the Brookhaven Laboratory Animal Facility which included social housing in cages appropriate for the physical and behavioral health of the individual animal. Animals were fed a 3x per day with additional nutritional supplements provided as prescribed by the attending veterinarian. Environmental enrichment included audio, video and tactile elements (e.g. listening to the radio, watching television, playing with toys and human interaction) and were provided on a daily basis to promote psychological well-being. All procedures were performed without compromising animal welfare and all efforts were made to minimize suffering including adequate use of anesthesia (ketamine, isoflurane) in the baboon imaging experiment. The baboon was not sacrificed following the study and further effort was taken to minimize suffering by allowing an interval of at least one month between subsequent imaging studies in the same animal.
C57BL/6 male mice were purchased at 10 weeks of age from The Jackson Laboratory and Taconic Farms. […]

Data set [3] relates to C57BL/6 mice. The data set can be described thus: Forced-swim test (FST). It counts as in vivo, mouse. Conditions: chronic i.p., day 10; Cpd-60 45 mg/kg, SAHA 25 mg/kg; vs vehicle. On the procedure:
Compounds were administered between 9 am and 1 pm for 7 days prior to the start of behavioral testing, and after completion of each daily session during behavioral testing. Testing was performed 18–24 hr after the previous treatment to avoid transient effects. Amphetamine-induced hyperlocomotion (AIH) was performed as previously described on days 7–9 of treatment with activity measured before and after amphetamine challenge (AccuScan Instruments, Inc.). Forced-swim test (FST) behavior was performed as previously described on day 10 of treatment and total time spent immobile during a 6 min session was scored automatically (Ethovision; Noldus). Treatment effects were analyzed by one way analysis of variance (ANOVA) with post hoc analysis using Least Squared Differences test (SPSS v18.0 IBM).

Data set [4] relates to transcripts in PFC, NAc and HIP. The data set can be described thus: Whole genome transcript profiling of brain regions (microarray). In kind it is in vivo, mouse. The protocol: Frozen mouse brains (n = 6/treatment group) were rapidly dissected at 4°C to isolate medial prefrontal cortex (PFC), nucleus accumbens (NAc) and hippocampus (HIP) for mRNA extraction. Whole genome transcript profiling was performed using the Illumina MouseWG-6 Expression BeadChip with subsequent validation by quantitative real-time PCR (qPCR) and is available online at the NCBI Gene Expression Omnibus repository (GSE47452).
Frozen mouse brains (n = 6/ treatment group) were rapidly dissected at 4°C, isolating medial prefrontal cortex, nucleus accumbens and hippocampus. […] For microarray experiments on Illumina MouseWG-6 BeadChips, RNA samples were pooled from two biological replicates such that the total number of samples was 27 (3 treatment groups x 3 brain regions x 3 RNA pools representing two mice per pool). All microarray analysis and gene set analysis (GSA) was performed using GeneSpring software (v.11.5.1) with raw signals adjusted using quantile normalization and baseline transformation with the median signal in all samples set to zero. Data were included in subsequent analyses if the normalized signal, thresholded at 0.8, was ‘present’ for 3 of 3 replicates for like treatment and tissue groups. […] Primer sequences for qPCR validation were designed using NCBI PRIMER-BLAST (Table S2).

Data set [5] deals with HDAC4 (Homo sapiens, UniProt P56524). The data set can be described thus: biochemical.
HDAC4, sequence (P56524 whole entry): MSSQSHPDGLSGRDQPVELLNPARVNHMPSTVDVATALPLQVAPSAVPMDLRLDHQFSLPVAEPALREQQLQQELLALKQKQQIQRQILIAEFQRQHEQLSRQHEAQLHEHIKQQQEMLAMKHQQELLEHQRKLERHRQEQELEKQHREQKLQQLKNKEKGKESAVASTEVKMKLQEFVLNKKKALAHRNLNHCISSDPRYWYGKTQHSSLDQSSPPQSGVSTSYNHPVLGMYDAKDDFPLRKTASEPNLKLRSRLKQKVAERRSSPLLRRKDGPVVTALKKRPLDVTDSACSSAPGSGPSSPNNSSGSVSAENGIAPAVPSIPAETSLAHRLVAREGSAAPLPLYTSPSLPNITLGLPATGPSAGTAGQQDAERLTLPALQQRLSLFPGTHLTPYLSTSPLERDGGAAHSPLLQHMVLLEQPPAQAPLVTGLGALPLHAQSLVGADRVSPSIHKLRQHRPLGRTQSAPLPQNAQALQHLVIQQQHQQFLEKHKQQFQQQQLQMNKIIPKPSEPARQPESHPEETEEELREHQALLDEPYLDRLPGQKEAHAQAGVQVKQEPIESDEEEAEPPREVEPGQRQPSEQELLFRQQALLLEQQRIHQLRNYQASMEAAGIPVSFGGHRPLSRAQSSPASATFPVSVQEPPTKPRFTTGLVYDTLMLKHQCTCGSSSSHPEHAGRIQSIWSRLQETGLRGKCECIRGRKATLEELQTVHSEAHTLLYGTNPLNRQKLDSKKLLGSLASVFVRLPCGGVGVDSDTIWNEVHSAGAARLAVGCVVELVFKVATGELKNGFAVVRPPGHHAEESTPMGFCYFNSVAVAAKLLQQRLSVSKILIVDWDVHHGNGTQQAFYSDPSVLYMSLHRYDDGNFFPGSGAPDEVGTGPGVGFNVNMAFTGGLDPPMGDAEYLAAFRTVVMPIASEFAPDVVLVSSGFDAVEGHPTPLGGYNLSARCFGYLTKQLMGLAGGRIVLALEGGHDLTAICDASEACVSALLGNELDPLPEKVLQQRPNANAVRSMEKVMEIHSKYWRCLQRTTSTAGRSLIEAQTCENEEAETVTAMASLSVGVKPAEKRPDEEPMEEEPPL
The test system of data set [6] is histone H4K12 acetylation in cultured primary mouse neuronal cells. The data set can be described thus: Mouse primary neuronal histone acetylation assay. Conditions: Neuron, 24 h, read-out: EC50 for H4K12 acetylation.
Description: EC50 values were determined from curve fitting using GraphPad Prism v5 software (GraphPad Software, Inc., USA).
Mouse primary neuronal cultures were generated in factory precoated poly-D-lysine 96-well plates (BD Biosciences #BD356692) treated overnight with 75 μL/well of laminin [0.05 mg/mL] (Sigma #L2020) in PBS buffer. E15 embryonic mouse forebrain was dissociated into a single cell suspension by gentle trituration following trypsin/DNAse digestion (trypsin: Cellgro #25-052-Cl; DNAse: Sigma #D4527). […] In the presence of HDAC inhibitors, cells signal intensities above the threshold were scored as “bright green cells” and expressed as a percentage normalized to DMSO controls. EC50 values were determined from curve fitting using GraphPad Prism v5 software (GraphPad Software, Inc. La Jolla, CA, USA).

Each structure is given as a SMILES string. pEC50, pIC50: −log10 of the molar value.

As a reminder, the pIC50 is the IC50 on a negative log10 scale, so that one unit is a factor of ten. A higher pIC50 goes with a small IC50. By pEC50 is commonly meant −log10 of the EC50, conventionally taken in molar units.

Regarding `CC(=O)Nc1ccc(C(=O)Nc2cc(-c3cccs3)ccc2N)cc1` [Cpd-60], in data set [1] (HEK293, 20 µM 24 hr, then 6 hr after media change), the “H4K12ac levels after washout” value is reported as “persistent increases in H4K12ac”. In addition, the “H4K12ac levels, constant exposure” value in data set [1] (HEK293, 20 µM for 24 hr) was “elevated H4K12ac levels”. Besides, the “brain uptake by PET” value in data set [2] was “reaches the brain, albeit at low levels relative to plasma”. In data set [3], the “reduction in immobility time” value turned out to be 67%. Also, in data set [4] (Gene Set Enrichment Analysis), the “overlap with the 121 transcripts modulated by lithium” value is on record as 11. For the same compound, the “transcripts altered across the three regions” value in data set [4] (PFC, NAc, HIP compiled, ≥[…] vs vehicle) came out at 390. The “transcripts up- or down-regulated, summed across the three brain regions” value in data set [4] (Tukey's HSD p<0.05 vs vehicle) amounted to 1609. In addition, in data set [5], the pIC50 was < 4.52. In addition, the negative-log EC50 (pEC50) in data set [6] is 5.14.

The values are drawn from paper PMC3743770, “A Selective HDAC 1/2 Inhibitor Modulates Chromatin and Gene Expression in Brain and Alters Mouse Behavior in Two Mood-Related Tests” (PLoS ONE, 2013).
